Patent publication US20120264735A1 (priority 2009, published 2012)

Biological target: T1, c-Met kinase (recombinant c-Met) (Homo sapiens, UniProt P08581)
T1 construct: 0.27 nM recombinant c-Met
Test: In vitro kinase assay I (homogeneous time-resolved fluorescence tyrosine kinase assay)
Type: biochemical
Procedure, shortened: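 Biotinylated peptide (0.5 μM) phosphorylated by 0.2 nM recombinant c-Met with 50 μM MgATP, 60 min at room temperature, pH 7.4, 5% DMSO. EDTA stop; HTRF read with Eu-anti-phosphotyrosine antibody and streptavidin-APC. IC50 from 4-parameter logistic fit.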

T1 sequence (P08581 25-1390): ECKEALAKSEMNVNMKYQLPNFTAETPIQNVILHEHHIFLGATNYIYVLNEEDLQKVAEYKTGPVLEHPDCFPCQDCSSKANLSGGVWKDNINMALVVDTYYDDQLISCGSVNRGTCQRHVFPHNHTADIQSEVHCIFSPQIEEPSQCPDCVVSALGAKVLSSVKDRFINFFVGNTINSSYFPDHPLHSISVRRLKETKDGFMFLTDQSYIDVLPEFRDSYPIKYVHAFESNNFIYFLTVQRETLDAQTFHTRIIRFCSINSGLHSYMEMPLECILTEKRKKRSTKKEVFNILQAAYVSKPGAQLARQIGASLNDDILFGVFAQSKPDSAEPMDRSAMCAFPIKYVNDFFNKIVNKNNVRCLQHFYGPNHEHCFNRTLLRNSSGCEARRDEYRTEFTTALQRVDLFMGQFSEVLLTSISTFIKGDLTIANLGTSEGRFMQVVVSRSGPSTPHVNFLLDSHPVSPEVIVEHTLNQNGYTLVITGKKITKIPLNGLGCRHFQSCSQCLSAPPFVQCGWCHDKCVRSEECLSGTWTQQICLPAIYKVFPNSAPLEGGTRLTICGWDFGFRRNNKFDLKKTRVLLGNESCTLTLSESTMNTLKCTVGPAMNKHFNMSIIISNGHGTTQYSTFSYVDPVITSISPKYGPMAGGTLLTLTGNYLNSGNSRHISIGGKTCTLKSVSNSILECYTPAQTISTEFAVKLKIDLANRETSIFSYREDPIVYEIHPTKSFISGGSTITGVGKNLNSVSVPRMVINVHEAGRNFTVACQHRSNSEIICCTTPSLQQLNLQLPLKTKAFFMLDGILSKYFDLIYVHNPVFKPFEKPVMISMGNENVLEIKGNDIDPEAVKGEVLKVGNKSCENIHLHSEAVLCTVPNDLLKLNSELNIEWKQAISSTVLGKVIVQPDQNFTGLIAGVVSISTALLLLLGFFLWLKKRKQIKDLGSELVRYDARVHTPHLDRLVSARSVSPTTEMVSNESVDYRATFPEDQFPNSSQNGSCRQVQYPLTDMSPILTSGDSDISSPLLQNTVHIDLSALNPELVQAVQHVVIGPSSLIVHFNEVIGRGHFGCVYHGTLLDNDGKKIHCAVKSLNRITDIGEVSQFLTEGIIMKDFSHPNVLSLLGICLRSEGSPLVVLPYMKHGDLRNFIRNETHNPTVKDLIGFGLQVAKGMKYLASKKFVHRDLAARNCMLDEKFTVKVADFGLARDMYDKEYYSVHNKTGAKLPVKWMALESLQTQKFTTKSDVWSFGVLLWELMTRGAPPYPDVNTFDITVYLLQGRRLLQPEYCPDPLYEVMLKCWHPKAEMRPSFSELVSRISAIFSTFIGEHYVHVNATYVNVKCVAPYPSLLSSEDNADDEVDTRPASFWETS

Compound | IC50 [nM]
O=C(Nc1cccc(Cc2nn(-c3cc(F)c(F)c(F)c3)ccc2=O)c1)OCC1CCCC1 [Example 556, cyclopentylmethyl (3-{[4-oxo-1-(3,4,5-trifluorophenyl)-1,4-dihydropyridazin-3-yl]methyl}phenyl)carbamate] | < 100
CN(C)C(=O)CCOC(=O)Nc1cccc(Cc2nn(-c3cc(F)c(F)c(F)c3)ccc2=O)c1 [Example 561, 3-(dimethylamino)-3-oxopropyl (3-{[4-oxo-1-(3,4,5-trifluorophenyl)-1,4-dihydropyridazin-3-yl]methyl}phenyl)carbamate] | < 100
Cn1cc(-n2ccc(=O)c(Cc3cccc(NC(=O)OCCC(F)(F)F)c3)n2)cn1 [Example 564, 3,3,3-trifluoropropyl (3-{[1-(1-methyl-1H-pyrazol-4-yl)-4-oxo-1,4-dihydropyridazin-3-yl]methyl}phenyl)carbamate] | < 100
Cn1cc(-n2ccc(=O)c(Cc3cccc(NC(=O)OCCN4CCS(=O)(=O)CC4)c3)n2)cn1 [Example 567, 2-(1,1-dioxidothio-morpholin-4-yl)ethyl (3-{[1-(1-methyl-1H-pyrazol-4-yl)-4-oxo-1,4-dihydropyridazin-3-yl]methyl}phenyl)carbamate] | < 100
CCN(CC)CCCOC(=O)Nc1cccc(Cc2nn(-c3cnn(C)c3)ccc2=O)c1 [Example 571, 3-(diethylamino)propyl (3-{[1-(1-methyl-1H-pyrazol-4-yl)-4-oxo-1,4-dihydropyridazin-3-yl]methyl}phenyl)carbamate] | < 100
Cn1cc(-n2ccc(=O)c(Cc3cccc(NC(=O)OCCCCO)c3)n2)cn1 [Example 572, 4-hydroxybutyl (3-{[1-(1-methyl-1H-pyrazol-4-yl)-4-oxo-1,4-dihydropyridazin-3-yl]methyl}phenyl)carbamate] | < 100
COCCCOC(=O)Nc1cccc(Cc2nn(-c3cnn(C)c3)ccc2=O)c1 [Example 575, 3-methoxypropyl (3-{[1-(1-methyl-1H-pyrazol-4-yl)-4-oxo-1,4-dihydropyridazin-3-yl]methyl}phenyl)carbamate] | < 100
N#Cc1cccc(-n2ccc(=O)c(Cc3cccc(NC(=O)OCCN4CCCC4=O)c3)n2)c1 [Example 582, 2-(2-oxopyrrolidin-1-yl)ethyl (3-{[1-(3-cyanophenyl)-4-oxo-1,4-dihydropyridazin-3-yl]methyl}phenyl)carbamate] | < 100
N#Cc1cccc(-n2ccc(=O)c(Cc3cccc(NC(=O)OCCN4CCOCC4=O)c3)n2)c1 [Example 584, 2-(3-oxomorpholin-4-yl)ethyl (3-{[1-(3-cyanophenyl)-4-oxo-1,4-dihydropyridazin-3-yl]methyl}phenyl)carbamate] | < 100
N#Cc1cccc(-n2ccc(=O)c(Cc3cccc(NC(=O)OCCOCC(F)(F)F)c3)n2)c1 [Example 586, 2-(2,2,2-trifluoroethoxy)ethyl (3-{[1-(3-cyanophenyl)-4-oxo-1,4-dihydropyridazin-3-yl]methyl}phenyl)carbamate] | < 100
CCCOC(=O)Nc1cccc(Cc2nn(-c3cc(F)cc(F)c3)ccc2=O)c1 [Example 590, propyl (3-{[1-(3,5-difluorophenyl)-4-oxo-1,4-dihydropyridazin-3-yl]methyl}phenyl)carbamate] | < 100
O=C(Nc1cccc(Cc2nn(-c3cc(F)cc(F)c3)ccc2=O)c1)OCCOCC(F)(F)F [Example 595, 2-(2,2,2-trifluoroethoxy)ethyl (3-{[1-(3,5-difluorophenyl)-4-oxo-1,4-dihydropyridazin-3-yl]methyl}phenyl)carbamate] | < 100
N#Cc1cccc(-n2ccc(=O)c(Cc3cccc(NC(=O)OCCN4CCS(=O)(=O)CC4)c3)n2)c1 [Example 596, 2-(1,1-dioxidothio-morpholin-4-yl)ethyl (3-{[1-(3-cyanophenyl)-4-oxo-1,4-dihydropyridazin-3-yl]methyl}phenyl)carbamate] | < 100
N#Cc1cccc(-n2ccc(=O)c(Cc3cccc(NC(=O)OCCN4CCOCC4)c3)n2)c1 [Example 597, 2-morpholin-4-ylethyl (3-{[1-(3-cyanophenyl)-4-oxo-1,4-dihydropyridazin-3-yl]methyl}phenyl)carbamate] | < 100
COCCOCCOC(=O)Nc1cccc(Cc2nn(-c3cc(F)c(F)c(F)c3)ccc2=O)c1 [Example 599, 2-(2-methoxyethoxy)ethyl (3-{[4-oxo-1-(3,4,5-trifluorophenyl)-1,4-dihydropyridazin-3-yl]methyl}phenyl)carbamate] | < 100
COCCOCCOC(=O)Nc1cccc(Cc2nn(-c3cccc(C#N)c3)ccc2=O)c1 [Example 600, 2-(2-methoxyethoxy)ethyl (3-{[1-(3-cyanophenyl)-4-oxo-1,4-dihydropyridazin-3-yl]methyl}phenyl)carbamate] | < 100
COCCOCCOC(=O)Nc1cccc(Cc2nn(-c3ccc(F)c(F)c3)ccc2=O)c1 [Example 602, 2-(2-methoxyethoxy)ethyl (3-{[1-(3,4-difluorophenyl)-4-oxo-1,4-dihydropyridazin-3-yl]methyl}phenyl)carbamate] | < 100
O=C1CN(CCOC(=O)Nc2cccc(Cc3nn(-c4cc(F)cc(F)c4)ccc3=O)c2)CCN1 [Example 604, 2-(3-oxopiperazin-1-yl)ethyl (3-{[1-(3,5-difluorophenyl)-4-oxo-1,4-dihydropyridazin-3-yl]methyl}phenyl)carbamate] | < 100
O=C(Nc1cccc(Cc2nn(-c3cc(F)cc(F)c3)ccc2=O)c1)OCCN1CCOCC1=O [Example 605, 2-(3-oxomorpholin-4-yl)ethyl (3-{[1-(3,5-difluorophenyl)-4-oxo-1,4-dihydropyridazin-3-yl]methyl}phenyl)carbamate] | < 100

Now from value to molecule:

IC50 [nM] | Compound
< 100 | O=C(Nc1cccc(Cc2nn(-c3cc(F)c(F)c(F)c3)ccc2=O)c1)OCC1CCCCC1 [Example 557, cyclohexylmethyl (3-{[4-oxo-1-(3,4,5-trifluorophenyl)-1,4-dihydropyridazin-3-yl]methyl}phenyl)carbamate]
< 100 | O=C(Nc1cccc(Cc2nn(-c3cc(F)c(F)c(F)c3)ccc2=O)c1)OCC1CCOCC1 [Example 558, tetrahydro-2H-pyran-4-ylmethyl (3-{[4-oxo-1-(3,4,5-trifluorophenyl)-1,4-dihydropyridazin-3-yl]methyl}phenyl)carbamate]
< 100 | CC1(COC(=O)Nc2cccc(Cc3nn(-c4cc(F)c(F)c(F)c4)ccc3=O)c2)COC1 [Example 560, (3-methyloxetan-3-yl)methyl (3-{[4-oxo-1-(3,4,5-trifluorophenyl)-1,4-dihydropyridazin-3-yl]methyl}phenyl)carbamate]
< 100 | Cn1cc(-n2ccc(=O)c(Cc3cccc(NC(=O)OCCC4CCOCC4)c3)n2)cn1 [Example 565, 2-(tetrahydro-2H-pyran-4-yl)ethyl (3-{[1-(1-methyl-1H-pyrazol-4-yl)-4-oxo-1,4-dihydropyridazin-3-yl]methyl}phenyl)carbamate]
< 100 | Cn1cc(-n2ccc(=O)c(Cc3cccc(NC(=O)OCCCN4CCS(=O)(=O)CC4)c3)n2)cn1 [Example 566, 3-(1,1-dioxidothio-morpholin-4-yl)propyl (3-{[1-(1-methyl-1H-pyrazol-4-yl)-4-oxo-1,4-dihydropyridazin-3-yl]methyl}phenyl)carbamate]
< 100 | Cn1cc(-n2ccc(=O)c(Cc3cccc(NC(=O)OCC(F)F)c3)n2)cn1 [Example 576, 2,2-difluoroethyl (3-{[1-(1-methyl-1H-pyrazol-4-yl)-4-oxo-1,4-dihydropyridazin-3-yl]methyl}phenyl)carbamate]
< 100 | Cn1cc(-n2ccc(=O)c(Cc3cccc(NC(=O)OCCOC4CCCCC4)c3)n2)cn1 [Example 577, 2-(cyclohexyloxy)ethyl (3-{[1-(1-methyl-1H-pyrazol-4-yl)-4-oxo-1,4-dihydropyridazin-3-yl]methyl}phenyl)carbamate]
< 100 | N#Cc1cccc(-n2ccc(=O)c(Cc3cccc(NC(=O)OCC4CCOCC4)c3)n2)c1 [Example 579, tetrahydro-2H-pyran-4-ylmethyl (3-{[1-(3-cyanophenyl)-4-oxo-1,4-dihydropyridazin-3-yl]methyl}phenyl)carbamate]
< 100 | CCCOC(=O)Nc1cccc(Cc2nn(-c3cccc(C#N)c3)ccc2=O)c1 [Example 580, propyl (3-{[1-(3-cyanophenyl)-4-oxo-1,4-dihydropyridazin-3-yl]methyl}phenyl)carbamate]
< 100 | N#Cc1cccc(-n2ccc(=O)c(Cc3cccc(NC(=O)OCCn4cncn4)c3)n2)c1 [Example 587, 2-(1H-1,2,4-triazol-1-yl)ethyl (3-{[1-(3-cyanophenyl)-4-oxo-1,4-dihydropyridazin-3-yl]methyl}phenyl)carbamate]
< 100 | CN(C)C(=O)CCOC(=O)Nc1cccc(Cc2nn(-c3cccc(C#N)c3)ccc2=O)c1 [Example 588, 3-(dimethylamino)-3-oxopropyl (3-{[1-(3-cyanophenyl)-4-oxo-1,4-dihydropyridazin-3-yl]methyl}phenyl)carbamate]
< 100 | CN(C)C(=O)CCOC(=O)Nc1cccc(Cc2nn(-c3cc(F)cc(F)c3)ccc2=O)c1 [Example 589, 3-(dimethylamino)-3-oxopropyl (3-{[1-(3,5-difluorophenyl)-4-oxo-1,4-dihydropyridazin-3-yl]methyl}phenyl)carbamate]
< 100 | O=C(Nc1cccc(Cc2nn(-c3cc(F)cc(F)c3)ccc2=O)c1)OCCN1CCCC1=O [Example 592, 2-(2-oxopyrrolidin-1-yl)ethyl (3-{[1-(3,5-difluorophenyl)-4-oxo-1,4-dihydropyridazin-3-yl]methyl}phenyl)carbamate]
< 100 | N#Cc1cccc(-n2ccc(=O)c(Cc3cccc(NC(=O)OCCC4CCOCC4)c3)n2)c1 [Example 598, 2-(tetrahydro-2H-pyran-4-yl)ethyl (3-{[1-(3-cyanophenyl)-4-oxo-1,4-dihydropyridazin-3-yl]methyl}phenyl)carbamate]
